Laboratory results reported in patent US11220502B2, “Sulfone compounds and derivatives for the treatment and prophylaxis of virus infection” (Hoffmann-La Roche Inc., priority 2018, dated 2022).
Like-named read-outs stand apart in the source and are kept apart here.

Molecular target: T1, human TLR7 (Homo sapiens, UniProt Q9NYK1)
T1 sequence (Q9NYK1 27-1049): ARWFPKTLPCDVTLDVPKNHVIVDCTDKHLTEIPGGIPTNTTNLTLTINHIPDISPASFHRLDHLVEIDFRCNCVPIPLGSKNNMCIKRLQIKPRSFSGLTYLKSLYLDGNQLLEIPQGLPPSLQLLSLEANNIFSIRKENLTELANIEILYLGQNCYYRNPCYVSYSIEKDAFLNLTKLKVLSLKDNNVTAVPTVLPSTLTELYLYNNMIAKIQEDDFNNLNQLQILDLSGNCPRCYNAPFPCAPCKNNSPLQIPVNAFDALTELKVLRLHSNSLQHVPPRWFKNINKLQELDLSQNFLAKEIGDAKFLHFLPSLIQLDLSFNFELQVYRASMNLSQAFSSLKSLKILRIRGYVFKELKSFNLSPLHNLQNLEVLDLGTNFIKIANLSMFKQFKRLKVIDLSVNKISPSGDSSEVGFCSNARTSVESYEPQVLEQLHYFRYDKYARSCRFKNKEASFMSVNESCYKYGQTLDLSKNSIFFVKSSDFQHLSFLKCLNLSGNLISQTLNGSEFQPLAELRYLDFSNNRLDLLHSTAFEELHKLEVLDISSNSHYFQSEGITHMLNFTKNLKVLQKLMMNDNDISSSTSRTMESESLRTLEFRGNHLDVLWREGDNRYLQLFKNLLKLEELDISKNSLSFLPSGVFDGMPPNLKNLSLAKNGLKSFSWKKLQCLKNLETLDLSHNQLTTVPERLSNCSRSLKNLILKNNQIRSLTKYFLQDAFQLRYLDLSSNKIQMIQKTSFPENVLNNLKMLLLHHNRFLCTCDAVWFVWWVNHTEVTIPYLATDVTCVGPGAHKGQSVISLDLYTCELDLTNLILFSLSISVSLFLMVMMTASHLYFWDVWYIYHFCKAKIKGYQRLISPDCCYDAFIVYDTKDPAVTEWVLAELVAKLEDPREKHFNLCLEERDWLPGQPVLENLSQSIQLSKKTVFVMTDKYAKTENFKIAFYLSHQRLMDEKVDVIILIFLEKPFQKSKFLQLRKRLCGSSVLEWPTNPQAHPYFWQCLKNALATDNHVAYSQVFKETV
Test: HEK293-Blue-hTLR-7 cells assay (SEAP reporter, NF-κB activation)
Format: cell-based
Conditions: for EC50: HEK293-Blue-hTLR-7 cells, 20 hrs incubation, SEAP reporter; for Ratio (EC50(prodrug)/EC50(active form)): calculated ratio of prodrug EC50 to EC50 of corresponding active form
Text: HEK293-Blue-hTLR-7 Cells Assay
A stable HEK293-Blue-hTLR-7 cell line was purchased from InvivoGen (Cat. #: hkb-ht1r7, San Diego, Calif., USA). These cells were designed for studying the stimulation of human TLR7 by monitoring the activation of NF-κB. A SEAP (secreted embryonic alkaline phosphatase) reporter gene was placed under the control of the IFN-β minimal promoter fused to five NF-κB and AP-1-binding sites. The SEAP was induced by activating NF-κB and AP-1 via stimulating HEK-Blue hTLR7 cells with TLR7 ligands. Therefore the reporter expression was regulated by the NF-κB promoter upon stimulation of human TLR7 for 20 hrs. The cell culture supernatant SEAP reporter activity was determined using QUANTI-Blue™ kit (Cat. #: rep-qb1, Invivogen, San Diego, Calif., USA) at a wavelength of 640 nm, a detection medium that turns purple or blue in the presence of alkaline phosphatase.
HEK293-Blue-hTLR7 cells were incubated at a density of 250,000˜450,000 cells/mL in a volume of 180 μL in a 96-well plate in Dulbecco's Modified Eagle's medium (DMEM) containing 4.5 g/L glucose, 50 U/mL penicillin, […], […], 2 mM L-glutamine, 10% (V/V) heat-inactivated fetal bovine serum for 24 hrs. Then the HEK293-Blue-hTLR-7 cells were incubated with addition of 20 μL test compound in a serial dilution in the presence of final DMSO at 1% and perform incubation under 37° C. in a CO2 incubator for 20 hrs. Then 20 μL of the supernatant from each well was incubated with 180 μL Quanti-blue substrate solution at 37° C. for 2 hrs and the absorbance was read at 620˜655 nm using a spectrophotometer. The signalling pathway that TLR7 activation leads to downstream NF-κB activation has been widely accepted, and therefore similar reporter assay was also widely used for evaluating TLR7 agonist (Tsuneyasu Kaisho and Takashi Tanaka, Trends in Immunology, Volume 29, Issue 7, July 2008, […]; Hiroaki Hemmi et al, Nature Immunology 3, 196-200 (2002)).
The Compounds and Examples of the present invention were tested in HEK293-hTLR-7 assay for their TLR7 agonism activity as described herein and results are listed in Table 1. […] The calculated ratio of EC50(prodrug)/EC50(active form) were within the range from 27.7 to about 8233.

[1] = prodrug, read-out: HEK293-hTLR-7 EC50 (Prodrug)
[2] = corresponding active form, read-out: HEK293-hTLR-7 EC50 (Active form)

| Compound | EC50 [1] | Ratio (EC50(prodrug)/EC50(active form)) | EC50 [2] |
| --- | --- | --- | --- |
| CCCN(C)C(=O)n1c(=O)n(Cc2ccc(Br)cc2)c2nc(S(=O)(=O)CC)nc(N)c21 [Example 22, 6-Amino-9-[(4-bromophenyl)methyl]-2-ethylsulfonyl-N-methyl-N-propyl-8-oxo-purine-7-carboxamide] | 13.1 µM | 570 |  |
| CCS(=O)(=O)c1nc(N)c2c(n1)n(Cc1ccccc1)c(=O)n2C(=O)N1CCCC1 [Example 5, 6-Amino-9-benzyl-2-ethylsulfonyl-7-(pyrrolidine-1-carbonyl)purin-8-one] | 29.7 µM | 174.7 |  |
| CCCN(C)C(=O)n1c(=O)n(Cc2ccc(C)cc2)c2nc(S(=O)(=O)CCC)nc(N)c21 [Example 12, 6-Amino-N-methyl-8-oxo-N-propyl-2-propylsulfonyl-9-(p-tolylmethyl)purine-7-carboxamide] | 3.3 µM | 50.8 |  |
| CCS(=O)(=O)c1nc(N)c2[nH]c(=O)n(Cc3ccc(Br)cc3)c2n1 [Compound 22a, 6-Amino-2-ethylsulfonyl-9-[(4-bromophenyl)methyl]-7H-purin-8-one] |  |  | 0.023 µM |
| CCN(C)C(=O)n1c(=O)n(Cc2ccc(F)cc2)c2nc(S(=O)(=O)CC)nc(N)c21 [Example 19, 6-Amino-N-ethyl-2-ethylsulfonyl-9-[(4-fluorophenyl)methyl]-N-methyl-8-oxo-purine-7-carboxamide] | 494 µM | 8233 |  |
| CCS(=O)(=O)c1nc(N)c2c(n1)n(Cc1ccc(C)cc1)c(=O)n2C(=O)N1CCCC1 [Example 17, 6-Amino-2-ethylsulfonyl-9-(p-tolylmethyl)-7-(pyrrolidine-1-carbonyl)purin-8-one] | 67 µM | 1030.8 |  |
| CCS(=O)(=O)c1nc(N)c2[nH]c(=O)n(Cc3ccc(F)cc3)c2n1 [Compound 20a, 6-Amino-2-ethylsulfonyl-9-[(4-fluorophenyl)methyl]-7H-purin-8-one] |  |  | 0.008 µM |
| CCN(C)C(=O)n1c(=O)n(Cc2ccc(Br)cc2)c2nc(S(=O)(=O)CC)nc(N)c21 [Example 23, 6-Amino-9-[(4-bromophenyl)methyl]-N-ethyl-2-ethylsulfonyl-N-methyl-8-oxo-purine-7-carboxamide] | > 100 µM | >4348 |  |
| CCCN(C)C(=O)n1c(=O)n(Cc2ccc(Cl)cc2)c2nc(S(=O)(=O)CCC)nc(N)c21 [Example 6, 6-Amino-9-[(4-chlorophenyl)methyl]-N-methyl-8-oxo-N-propyl-2-propylsulfonyl-purine-7-carboxamide] | 2.6 µM | 123.8 |  |
| CCCN(C)C(=O)n1c(=O)n(Cc2ccccc2)c2nc(S(=O)(=O)CC)nc(N)c21 [Example 4, 6-Amino-9-benzyl-2-ethylsulfonyl-N-methyl-8-oxo-N-propyl-purine-7-carboxamide] | 87.5 µM | 514.7 |  |
| CCS(=O)(=O)c1nc(N)c2c(n1)n(Cc1ccc(Cl)cc1)c(=O)n2C(=O)N(C)CCOC [Example 11, 6-Amino-9-[(4-chlorophenyl)methyl]-2-ethylsulfonyl-N-(2-methoxyethyl)-N-methyl-8-oxo-purine-7-carboxamide] | 10.1 µM | 121.7 |  |
| CCN(C)C(=O)n1c(=O)n(Cc2ccc(Cl)cc2)c2nc(S(=O)(=O)CC)nc(N)c21 [Example 9, 6-Amino-9-[(4-chlorophenyl)methyl]-N-ethyl-2-ethylsulfonyl-N-methyl-8-oxo-purine-7-carboxamide] | 18.2 µM | 219.3 |  |
| CCS(=O)(=O)c1nc(N)c2[nH]c(=O)n(Cc3ccc(C)cc3)c2n1 [Compound 14a, 6-amino-2-ethylsulfonyl-9-(p-tolylmethyl)-7H-purin-8-one] |  |  | 0.065 µM |
| CCCN(C)C(=O)n1c(=O)n(Cc2ccc(OC)cc2)c2nc(S(=O)(=O)CCC)nc(N)c21 [Example 20, 6-Amino-9-[(4-methoxyphenyl)methyl]-N-methyl-8-oxo-N-propyl-2-propylsulfonyl-purine-7-carboxamide] | 32.1 µM | 4012.5 |  |
| CCCS(=O)(=O)c1nc(N)c2[nH]c(=O)n(Cc3ccc(C)cc3)c2n1 [Compound 12a, 6-amino-2-(propylsulfonyl)-9-(p-tolylmethyl)-7H-purin-8-one] |  |  | 0.065 µM |
| CCCS(=O)(=O)c1nc(N)c2c(n1)n(Cc1ccc(OC)cc1)c(=O)n2C(=O)N(C)CC [Example 21, 6-Amino-N-ethyl-9-[-(4-methoxyphenyl)methyl]-N-methyl-8-oxo-2-propylsulfonyl-purine-7-carboxamide] | 24.2 µM | 3025 |  |
| CCCS(=O)(=O)c1nc(N)c2c(n1)n(Cc1ccc(C)cc1)c(=O)n2C(=O)N(C)CC [Example 13, 6-Amino-N-ethyl-N-methyl-8-oxo-2-propylsulfonyl-9-(p-tolylmethyl)purine-7-carboxamide] | 9.6 µM | 147.7 |  |
| CCS(=O)(=O)c1nc(N)c2c(n1)n(Cc1ccc(Cl)cc1)c(=O)n2C(=O)N(C)C [Example 10, 6-Amino-9-[(4-chlorophenyl)methyl]-2-ethylsulfonyl-N,N-dimethyl-8-oxo-purine-7-carboxamide] | 2.3 µM | 27.7 |  |
| CCCS(=O)(=O)c1nc(N)c2c(n1)n(Cc1ccc(Cl)cc1)c(=O)n2C(=O)N(C)CC [Example 7, 6-Amino-9-[(4-chlorophenyl)methyl]-N-ethyl-N-methyl-8-oxo-2-propylsulfonyl-purine-7-carboxamide] | 3.2 µM | 152.4 |  |
| CCCS(=O)(=O)c1nc(N)c2[nH]c(=O)n(Cc3ccccc3)c2n1 [Compound 1a, 6-amino-9-benzyl-2-propylsulfonyl-7H-purin-8-one] |  |  | 0.075 µM |
| CCCS(=O)(=O)c1nc(N)c2c(n1)n(Cc1ccccc1)c(=O)n2C(=O)N(C)CC [Example 1, 6-Amino-9-benzyl-N-ethyl-N-methyl-8-oxo-2-propylsulfonyl-purine-7-carboxamide] | 10.9 µM | 145.3 |  |
| CCCN(C)C(=O)n1c(=O)n(Cc2ccc(C)cc2)c2nc(S(=O)(=O)CC)nc(N)c21 [Example 14, 6-Amino-2-ethylsulfonyl-N-methyl-8-oxo-N-propyl-9-(p-tolylmethyl)purine-7-carboxamide] | 68.5 µM | 1053 |  |
| CCN(CC)C(=O)n1c(=O)n(Cc2ccc(C)cc2)c2nc(S(=O)(=O)CC)nc(N)c21 [Example 15, 6-Amino-N,N-diethyl-2-ethylsulfonyl-8-oxo-9-(p-tolylmethyl)purine-7-carboxamide] | 5.6 µM | 86.2 |  |
| CCCS(=O)(=O)c1nc(N)c2[nH]c(=O)n(Cc3ccc(Cl)cc3)c2n1 [Compound 6a, 6-amino-9-[(4-chlorophenyl)methyl]-2-propylsulfonyl-7H-purin-8-one] |  |  | 0.021 µM |
